From US8084621B2, “3-Pyrrolo[b]cyclohexylene-2-dihydroindolinone derivatives and uses thereof” (Jiangsu Simcere Pharmaceutical R&D Co. Ltd., priority 2006, dated 2011)

Legend:
[1] = test system: Human Colon Cancer Cell Line (CACO-2); assay: Tumor cell proliferation assay (MTT), CACO-2; type: cell-based; conditions: concentration of 10^−5 mol/L, preliminary screening, 72 hours, read-out: Inhibition rate % CACO-2
Text: (§1) The assay used generally is the blue tetrazolium bromide (MTT) method. […] The amount of formazan can be detected by the microplate reader through the absorption value at 570 nm. The amount of formazan product generated is proportional to the number of living cells in the sample, so the OD value may reflect the number of living cells and the ability of a test drug to inhibit or kill cells. The MTT assay may be used in determining the ability of different compounds of the present invention to inhibit one or more cancer cells proliferation. Similar assays can be designed along the same lines for any cancer cell using techniques well known in the art.
(§2) The assay used generally is the blue tetrazolium bromide (MTT) method. […] Intracellular purple formazan salt crystals can be solved in DMSO and the absorption value at 570 nm is detected by the microplate reader, then the number of living cells can be detected indirectly. So MTT assay may be used to determine the ability of a compound of the present invention to inhibit cell proliferation. Similar assays can be designed along the same lines for any cancer cell using techniques well known in the art.
2.2.10 Human Colon Cancer Cell Line (CACO-2)
The cell of 2.2.10 cultured in DMEM/High glucose medium containing 12% fetal bovine serum in the condition of 37° C., 5% CO2.
(§3) 2.3.1 Cell seeding: Trypsinize the cell by 0.05% trypsin-EDTA and add RPMI 1640 medium (DMEM or 5A) containing 12% calf serum. Count the number, then dilute to 1.67×10^4/ml. Add 180 ul/well to the 96 well plate (3000 cells/well).
(§4) 2.3.2 Culture: cells are incubated for 24 hours at 37° C. under 5% CO2.
(§5) 2.3.3 Preliminary screening: The compounds are firstly diluted to 0.1 mol/L with DMSO, and then diluted to three concentrations of 10^−5 mol/L, 10^−6 mol/L and 10^−7 mol/L. Add 20 ul test compounds to the 96 well plate and incubate for 72 hours. Each group has three parallel wells and all experiments repeat three times. Each inhibition ratio is calculated, then an average value of three times is taken as the measured value. 2.3.4 Staining 2.3.4.1 Attached cell: add 20 ul/well MTT to the 96-well plates; incubate for 4 hours in the incubator. Pour out the culture medium in the well and add 100 ul/well DMSO. Shake the plate for 5 min. 2.3.4.2 Suspension cell: add 20 ul/well MTT to the 96-well plates; incubate for 4 hours in the incubator. Add 50 ul/well 20% SDS and incubate for overnight in the incubator. 2.3.5 Reading the plates: read the absorbance A570-A630 with the Infinite M200 microtiter plate reader. Calculate the inhibition ratio of the test compounds. 2.3.6 Secondary screening: the compounds whose inhibition ratio is greater than 50% at the concentrations of 10^−5 mol/L in the preliminary screening will be picked out for Secondary screening. Dilute these compounds to ten concentrations: 10^−5 mol/L, 0.5×10^−5 mol/L, 10^−6 mol/L, 0.8×10^−6 mol/L, 0.6×10^−6 mol/L, 0.4×10^−6 mol/L, 0.2×10^−6 mol/L, 10^−7 mol/L, 0.8×10^−7 mol/L and 0.4×10^−7 mol/L. Add 20 ul test compound solution to the 96 well plate and incubate for 48 hours. Each group has three parallel wells and all experiments repeat for three times. Read the plates and calculate the inhibition ratio according to the preliminary screening method. 2.3.7 Calculate the Inhibition Ratio of Cell Proliferation and the IC50
(§6) According to the inhibition ratio of cell proliferation at the different concentrations of the compound, inhibition ratio of 50% of the test compound is calculated through the logarithm of the concentration of the compound with the Logit [I] linear regression, and an average value of three times is taken as the measured value of a sample.

[2] = test system: Human Small Cell Lung Cancer Cell Line (NCI-H446); assay: Tumor cell proliferation assay (MTT), NCI-H446; type: cell-based; conditions: for inhibition at 10 µM: concentration of 10^−5 mol/L, preliminary screening, 72 hours, read-out: Inhibition rate % NCI-H446; for IC50: secondary screening, 48 hours
Text: as §1, §2
2.2.5 Human Small Cell Lung Cancer Cell Line (NCI-H446)
The cells of the 2.2.1, 2.2.2, 2.2.3, 2.2.4, 2.2.5 cultured with RPMI 1640 containing 12% calf serum in the condition of 37° C., 5% CO2.
as §3, §4, §5, §6

IC50 [2] [µM]	Compound	inhibition at 10 µM [1] [%]	inhibition at 10 µM [2] [%]
	Cc1[nH]c2c(c1C(=O)N1CCN(C)CC1)CCC/C2=C1/C(=O)Nc2ccc(F)cc21 [I-14, 2-methyl-3-(4-methylpiperazine-1-carbonyl)-7-[1,2-dihydro-5-fluoro-2-oxo-3H-indol-(Z)-3-ylidene]-4,5,6,7-tetrahydro-1H-indole]	2.36	
5.17	CCN(CC)CCNC(=O)c1c(C)[nH]c2c1CCC/C2=C1/C(=O)Nc2ccc(C)cc21 [I-4, N-(2-(diethylamino)ethyl)-2-methyl-7-[1,2-dihydro-5-methyl-2-oxo-3H-indol-(Z)-3-ylidene]-4,5,6,7-tetrahydro-1H-indole-3-carboxamide]		57.7
	Cc1[nH]c2c(c1C(=O)NCCN(C)C)CCC/C2=C1/C(=O)Nc2ccc(F)cc21 [I-6, N-(2-(dimethylamino)ethyl)-2-methyl-7-[1,2-dihydro-5-fluoro-2-oxo-3H-indol-(Z)-3-ylidene]-4,5,6,7-tetrahydro-1H-indole-3-carboxamide]		27.1
	Cc1[nH]c2c(c1C(=O)NCC(O)CN1CCCCC1)CCC/C2=C1/C(=O)Nc2ccccc21 (centres unmarked) [I-73, N-(2-hydroxy-3-(piperidin-1-yl)propyl)-2-methyl-7-[1,2-dihydro-2-oxo-3H-indol-(Z)-3-ylidene]-4,5,6,7-tetrahydro-1H-indole-3-carboxamide]	44.4	
	Cc1[nH]c2c(c1C(=O)NCC(O)CN1CCOCC1)CCC/C2=C1/C(=O)Nc2ccc(F)cc21 (centres unmarked) [I-68, N-(2-hydroxy-3-morpholinopropyl)-2-methyl-7-[1,2-dihydro-5-fluoro-2-oxo-3H-indol-(Z)-3-ylidene]-4,5,6,7-tetrahydro-1H-indole-3-carboxamide]		29.1
2.52	Cc1[nH]c2c(c1C(=O)NCC(O)CN1CCCC1)CCC/C2=C1/C(=O)Nc2ccc(F)cc21 (centres unmarked) [I-71, N-(2-hydroxy-3-(pyrrolidin-1-yl)propyl)-2-methyl-7-[1,2-dihydro-5-fluoro-2-oxo-3H-indol-(Z)-3-ylidene]-4,5,6,7-tetrahydro-1H-indole-3-carboxamide]		87.5
8.15	Cc1[nH]c2c(c1C(=O)NCC(O)CN1CCN(C)CC1)CCC/C2=C1/C(=O)Nc2ccc(F)cc21 (centres unmarked) [I-77, N-[2-hydroxy-3-(4-methylpiperazin-1-yl)propyl]-2-methyl-7-[1,2-dihydro-5-fluoro-2-oxo-3H-indol-(Z)-3-ylidene]-4,5,6,7-tetrahydro-1H-indole-3-carboxamide]		57.2
5.99	Cc1[nH]c2c(c1C(=O)NCCCN(C)C)CCC/C2=C1/C(=O)Nc2ccc(Cl)cc21 [I-7, N-(3-(dimethylamino)propyl)-2-methyl-7-[1,2-dihydro-5-chloro-2-oxo-3H-indol-(Z)-3-ylidene]-4,5,6,7-tetrahydro-1H-indole-3-carboxamide]		62.7
	Cc1[nH]c2c(c1C(=O)NCC(O)CN1CCCCC1)CCC/C2=C1/C(=O)Nc2ccc(F)cc21 (centres unmarked) [I-74, N-(2-hydroxy-3-(piperidin-1-yl)propyl)-2-methyl-7-[1,2-dihydro-5-fluoro-2-oxo-3H-indol-(Z)-3-ylidene]-4,5,6,7-tetrahydro-1H-indole-3-carboxamide]	83.1	
	Cc1[nH]c2c(c1C(=O)NCCO)CCC/C2=C1/C(=O)Nc2ccc(F)cc21 [I-9, N-(2-hydroxyethyl)-2-methyl-7-[1,2-dihydro-5-fluoro-2-oxo-3H-indol-(Z)-3-ylidene]-4,5,6,7-tetrahydro-1H-indole-3-carboxamide]	18	
	Cc1[nH]c2c(c1C(=O)NCCO)CCC/C2=C1/C(=O)Nc2ccccc21 [I-8, N-(2-hydroxyethyl)-2-methyl-7-[1,2-dihydro-2-oxo-3H-indol-(Z)-3-ylidene]-4,5,6,7-tetrahydro-1H-indole-3-carboxamide]	17	
6.47	CCN(CC)CCNC(=O)c1c(C)[nH]c2c1CCC/C2=C1/C(=O)Nc2ccc(Cl)cc21 [I-3, N-(2-(diethylamino)ethyl)-2-methyl-7-[1,2-dihydro-5-chloro-2-oxo-3H-indol-(Z)-3-ylidene]-4,5,6,7-tetrahydro-1H-indole-3-carboxamide]		69.9
	CCN(CC)CCNC(=O)c1c(C)[nH]c2c1CCC/C2=C1/C(=O)Nc2ccccc21 [I-5, N-(2-(diethylamino)ethyl)-2-methyl-7-[1,2-dihydro-2-oxo-3H-indol-(Z)-3-ylidene]-4,5,6,7-tetrahydro-1H-indole-3-carboxamide]	44.1	
	CCN(CC)CCNC(=O)c1c(C)[nH]c2c1CCC/C2=C1/C(=O)Nc2ccc(F)cc21 [I-2, N-(2-(diethylamino)ethyl)-2-methyl-7-[1,2-dihydro-5-fluoro-2-oxo-3H-indol-(Z)-3-ylidene]-4,5,6,7-tetrahydro-1H-indole-3-carboxamide]	43	
2.64	Cc1[nH]c2c(c1C(=O)NCC(O)CN1CCCC1)CCC/C2=C1/C(=O)Nc2ccccc21 (centres unmarked) [I-70, N-(2-hydroxy-3-(pyrrolidin-1-yl)propyl)-2-methyl-7-[1,2-dihydro-2-oxo-3H-indol-(Z)-3-ylidene]-4,5,6,7-tetrahydro-1H-indole-3-carboxamide]		87
2.27	CCN(CC)CC(O)CNC(=O)c1c(C)[nH]c2c1CCC/C2=C1/C(=O)Nc2ccccc21 (centres unmarked) [I-63, N-(3-(diethylamino)-2-hydroxypropyl)-2-methyl-7-[1,2-dihydro-2-oxo-3H-indol-(Z)-3-ylidene]-4,5,6,7-tetrahydro-1H-indole-3-carboxamide]		79
